Paper PMC11048283 (Biology, 2024)
“Also recorded” adds a separate entry of the source. Read-outs that look alike come from different tables or passages of the source. One block for each compound: values may come before it.

Experiments:
[1] = target: ScinGOBP2 (Semiothisa cinerearia, UniProt A0A889XLB8); test: Fluorescence-based competitive binding assay with 1-NPN probe
Experimental: A total of 27 volatile compounds were selected for a fluorescence-based competitive binding assay based on previously reported information for S. cinerearia host plants. This experiment was performed on a spectrofluorometer F-380 (Tianjin, China) using slits of 10 nm and a light path of 1 cm. The fluorescent probe N-phenyl-1-naphthylamine (1-NPN) was excited at 337 nm, and emissions were recorded between 390 and 530 nm. The affinity of 1-NPN for ScinGOBP2 was measured by titrating a 2 μM solution of the protein with aliquots of 1 mM 1-NPN in methanol to final concentrations of 1–16 μM. The dissociation constants of 1-NPN and the proteins were calculated using the software GraphPad Prism 8.0. Competitive binding was measured via the titration of the protein/1-NPN (both at 2 μM) mixture by adding aliquots of 1 mM of methanol solution of ligand to final concentrations of 2–30 μM. Dissociation constants of the competitors were calculated using the equation KD = IC50/(1 + [1-NPN]/K1-NPN), where IC50 represents the ligand concentration achieving a 50% decrease in 1-NPN’s initial fluorescence intensity, [1-NPN] represents the free concentration of 1-NPN, and K1-NPN represents the dissociation constant of the complex ScinGOBP2/1-NPN.

[2] = system: female S. cinerearia; test: Two-choice oviposition preference assay; format: in vivo, Semiothisa cinerearia; conditions: 100 μg in paraffin oil vs solvent control; eggs counted after 48 h
Experimental: The oviposition preference of female S. cinerearia for the ScinGOBP2 ligands was assessed in a screened enclosure (length/width/height = 86 cm:46 cm:48 cm). To ensure mating of all the female moths, newly emerged males and females were cohabitated in a rearing enclosure (30 cm × 30 cm × 30 cm) at a sex ratio of 1:2 for a period of 2 days. Mated females for subsequent experiments were randomly selected from this enclosure. Each screened cage housed five gravid females. For adult nourishment, a small Petri dish containing 10% honey solution was positioned at the cage’s base center. Test compounds (100 μg, diluted in paraffin oil) or the solvent control (paraffin oil) were applied to a cotton ball, which was then affixed to the opposite inner sides of the cage. After 48 h, the number of eggs deposited on the gauze on both the treatment and control sides was counted. The oviposition preference index was determined using the formula (T − C)/(T + C), where T represents the egg count on the treatment side and C represents the count on the control side. Each experiment was replicated eight times.

[3] = system: S. cinerearia antennae; test: Electroantennogram (EAG) recordings; parameters: species or system Semiothisa cinerearia; conditions: 10 μL of 10 μg/μL in paraffin oil, control subtracted, n = 12
Experimental: Electroantennogram recordings were carried out to measure the antennal responses of S. cinerearia to ScinGOBP2 ligands. The antennae of S. cinerearia adults were carefully removed from the base, and the tips were carefully cut off. The prepared antennae were affixed to electrode holders using conductive electrode gel. Subsequently, a 10 μL aliquot of the test compound (10 μg/μL, diluted in paraffin oil) was applied to a strip of filter paper. This strip was then placed into a 1000 µL pipette tip, serving as a cartridge. The test cartridge was connected to a stimulus controller (CS-55; Syntech, Kirchzarten, Germany) that delivered a 0.5 s stimulus every 30 s at a constant flow rate of 10 mL/s. Antennal signals were recorded using an EAG Pro system (Syntech). In all the experiments, antennae were exposed to a solvent control (paraffin oil) at the beginning and end of a series of sample measurements. Test stimuli were presented in a randomized sequence, interspersed between two control puffs. The EAG responses to the test odors were adjusted by subtracting the mean amplitude of the two control signals. EAG responses were measured from a cohort of twelve insects, each with different antennae (n = 12).

[4] = system: AipsGOBP2; parameters: method as in PMID 29778539; conditions: cited from earlier work
[5] = system: OachGOBP2; parameters: method as in PMID 36975901; conditions: cited from earlier work
[6] = KD, competitive displacement of 1-NPN, protein/1-NPN both at 2 μM, ligand 2–30 μM, KD = IC50/(1 + [1-NPN]/K1-NPN), mean ± SE
[7] = competitive displacement of 1-NPN, protein/1-NPN both at 2 μM, ligand 2–30 μM, KD = IC50/(1 + [1-NPN]/K1-NPN), mean ± SE, read-out: KD

Sequence of ScinGOBP2 (A0A889XLB8 entry or part of it): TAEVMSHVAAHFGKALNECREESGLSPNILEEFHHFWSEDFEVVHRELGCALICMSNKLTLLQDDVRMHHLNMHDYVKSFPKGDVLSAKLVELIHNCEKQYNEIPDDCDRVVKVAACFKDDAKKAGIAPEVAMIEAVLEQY

Structure (SMILES): c1ccc(Nc2cccc3ccccc23)cc1 [1-NPN, N-phenyl-1-naphthylamine, reference compound]
Kd ([1]; dissociation constant (KD) for the ScinGOBP2/1-NPN complexes, direct titration of 2 μM protein with 1-NPN 1–16 μM): 2.27 µM

Structure (SMILES): C=CCCCCCCC [1-Nonene]
Oviposition preference of mated females [2]: deter S. cinerearia from ovipositing; also recorded: marked repellent behavioral responses | Kd [1, 6]: 12.2 ± 0.44 µM | Kd ([1]; competitive displacement of 1-NPN, protein/1-NPN both at 2 μM, ligand 2–30 μM, KD = IC50/(1 + [1-NPN]/K1-NPN), mean ± SE): < 15 µM

Kd [1, 7]: 5.07 ± 0.27 µM
Structure (SMILES): CCCCCCCCCC=O [Decanal]
Oviposition preference of mated females [2]: significant preference for laying eggs; also recorded: significant attractant behavioral responses | EAG mean response value, males ([3]; male antennae): 0.063 mV

Structure (SMILES): C=C(C)[C@H]1CC=C(C)CC1 [Dipentene]
Oviposition preference of mated females [2]: deter S. cinerearia from ovipositing; also recorded: marked repellent behavioral responses | Kd [1, 6]: 14.9 ± 0.77 µM | EAG mean response value, females ([3]; female antennae): 0.086 mV

Kd [1, 7]: 2.21 ± 0.17 µM
Structure (SMILES): CC(=O)CC/C=C(\C)CCC=C(C)C [Geranyl acetone]
Oviposition preference of mated females [2]: deter S. cinerearia from ovipositing; also recorded: marked repellent behavioral responses

Kd [1, 7]: 14.17 ± 0.04 µM
Structure (SMILES): CC/C=C\CCOC(=O)CCC [cis-3-Hexenyl butyrate]
Oviposition preference of mated females [2]: significant preference for laying eggs; also recorded: significant attractant behavioral responses

Kd [1, 7]: 6.55 ± 0.18 µM
Structure (SMILES): CC/C=C\CCOC(=O)CCCC [cis-3-Hexenyl n-valerate]
Oviposition preference of mated females [2]: significant preference for laying eggs; also recorded: significant attractant behavioral responses

Structure (SMILES): CC/C=C\CCO [cis-3-hexen-1-ol]
binding affinity for AipsGOBP2 [4]: high binding affinity

Structure (SMILES): CCCCOC(=O)c1ccccc1C(=O)OCCCC [dibutyl phthalate]
binding affinity for AipsGOBP2 [4]: high binding affinity

Structure (SMILES): CC(C)=CCC/C(C)=C/CC/C(C)=C/CO [farnesol]
binding affinity for OachGOBP2 [5]: high binding affinity

Structure (SMILES): CCCCCCCC/C=C\CCCCCCCC(=O)O [oleic acid]
binding affinity for AipsGOBP2 [4]: high binding affinity

Structure (SMILES): CC1=CCC2CC1C2(C)C (stereo not drawn) [α-Pinene]
Oviposition preference of mated females [2]: significant preference for laying eggs; also recorded: significant attractant behavioral responses | Kd [1, 6]: 9.41 ± 0.28 µM

Structure (SMILES): CC1=CC[C@H](C(C)C)C=C1 [α-phellandrene]
binding affinity for OachGOBP2 [5]: high binding affinity

Structure (SMILES): C=C1CCC2CC1C2(C)C (stereo not drawn) [β-Pinene]
Oviposition preference of mated females [2]: deter S. cinerearia from ovipositing; also recorded: marked repellent behavioral responses | Kd [1, 6]: 13.2 ± 0.19 µM

Structure (SMILES): C=C1CC/C=C(\C)CC[C@@H]2[C@@H]1CC2(C)C [β-caryophyllene]
binding affinity for AipsGOBP2 [4]: high binding affinity
